Values quoted from earlier work as cited in US20240130871A1, “DRUG-COATED ENDOVASCULAR DEVICES” (UNIVERSITY OF SOUTH CAROLINA, priority 2022, published 2024).

Settings: current DCB devices

In the case of CC(=O)O[C@H]1C(=O)[C@@]2(C)[C@H]([C@H](OC(=O)c3ccccc3)[C@]3(O)C[C@H](OC(=O)[C@H](O)[C@@H](NC(=O)c4ccccc4)c4ccccc4)C(C)=C1C3(C)C)[C@]1(OC(C)=O)CO[C@@H]1C[C@@H]2O [PTX, paclitaxel], the “delivered PTX lost to systemic circulation” value is given as greater than 90%.
